# According to patent US20120114583A1, “USE OF DIHYDROQUERCETIN AND AT LEAST ONE AMINO ACID TO POSITIVELY INFLUENCE THE NATURAL PIGMENTATION PROCESS” (Henkel AG & Co. KGaA, priority 2009, published 2012):
# Assays:
# Format in all cases: cell-based
# [1] = system: hair follicle equivalents; assay: Melanin content in hair follicle equivalents; settings: for Melanin content d4 Mean: day 4; for Melanin content d7 Mean: day 7, untreated control 181
# Method: In order to assess the melanin content, three-dimensional organotypical hair follicle cell cultures prepared from dermal papilla cells, hair follicle melanocytes and outer root sheath keratinocytes were treated with dihydroquercetin (10 μM and 100 μM) for 7 days. Untreated cell cultures served as a control. After 4 and 7 days respectively, the hair follicle equivalents were homogenized and the melanin extracted with NaOH (1M)+10% DMSO at 100° C. for 45 min. Aliquots of the specimens were then transferred to a 96-well plate and the extinction was measured at 492 nm. The rise in the melanin content from day 0 to day 7 was evaluated. All values were referenced to the untreated control on day 7 (=100%).
# [2] = system: MCR1 (melanocortin receptor 1); assay: Differential gene expression of MCR1 by quantitative RT-PCR in organotypical hair follicle cell cultures; settings: for MCR1 expression, Mean: 48 h, dermal papilla cell 3D cultures, untreated control = 1
# Description: (§1) The ligands involved in melanogenesis, such as SCF or alpha-MSH (melanocyte stimulating hormone alpha) bind to different receptors, through which the corresponding signal is transmitted into the cell interior. The receptor for SCF is ckit, the receptor for alpha-MSH is MCR-1 (melanocortin receptor 1). Substances that bring about a change in the expression of MCR-1 and/or ckit can influence melanogenesis. If an induction (up-regulation or stimulation) of the gene expression of the corresponding receptors occurs, melanogenesis is assumed to be stimulated. Differential gene expression was determined by means of quantitative RT-PCR. After preparing three-dimensional organotypical hair follicle cell cultures from dermal papilla cells on microcarriers, they were incubated for 48 h with dihydroquercetin in two different concentrations. In order to perform PCR the RNA was first isolated from the organotypical cell cultures with the aid of an RNeasy Mini Kit from Qiagen and transcribed into cDNA by reverse transcription. In the subsequent PCR reaction, which is performed for each gene with the aid of gene-specific primers and which serves to amplify the required gene sections, the formation of PCR products is detected online via a fluorescence signal. The fluorescence signal is proportional to the amount of PCR product formed. The stronger the expression of a particular gene, the greater the amount of PCR product formed and the higher the fluorescence signal. To quantify the gene expression the untreated control is set to 1 and the expression of the gene to be determined is referenced thereto (x-times expression). […] Values greater than or equal to the 1.5 times expression or less than or equal to the 0.7 times expression of the untreated control are classed as being expressed in a tangentially differential manner.
# [3] = system: ckit; assay: Differential gene expression of ckit by quantitative RT-PCR in organotypical hair follicle cell cultures; settings: for ckit expression, Mean: 48 h, dermal papilla cell 3D cultures, untreated control = 1
# Description: as §1
# [4] = system: gp100; assay: Differential gene expression of gp100 by quantitative RT-PCR in organotypical hair follicle cell cultures; settings: for gp100 expression, Mean: 48 h, dermal papilla cell 3D cultures, untreated control = 1
# Method: Gp 100 is a protein that occurs in the membrane of melanosomes and stabilizes them. Since more melanin is produced in the cells following application of substances that positively influence melanogenesis, an increase in the melanosomes necessary for transport also occurs. A substance that induces the gene expression of gp100 is therefore a pigmentation-stimulating active ingredient. Differential gene expression was determined by means of quantitative RT-PCR. After preparing three-dimensional organotypical hair follicle cell cultures from dermal papilla cells on microcarriers, they were incubated for 48 h with dihydroquercetin in two different concentrations. In order to perform PCR the RNA was first isolated from the organotypical cell cultures with the aid of an RNeasy Mini Kit from Qiagen and transcribed into cDNA by reverse transcription. In the subsequent PCR reaction, which is performed for each gene with the aid of gene-specific primers and which serves to amplify the required gene sections, the formation of PCR products is detected online via a fluorescence signal. The fluorescence signal is proportional to the amount of PCR product formed. The stronger the expression of a particular gene, the greater the amount of PCR product formed and the higher the fluorescence signal. To quantify the gene expression the untreated control is set to 1 and the expression of the gene to be determined is referenced thereto (x-times expression). […] Values greater than or equal to the 1.5 times expression or less than or equal to the 0.7 times expression of the untreated control are classed as being expressed in a tangentially differential manner.
smiles,measurement,setting,value
"O=C1c2c(O)cc(O)cc2OC(c2ccc(O)c(O)c2)C1O (stereo not drawn) [Dihydroquercetin, 3,3′,4′,5,7-pentahydroxyflavanone]",Melanin content d4 Mean,[1]; 10 μM,100%
same,Melanin content d7 Mean,[1]; 10 μM,254%
same,Melanin content d4 Mean,[1]; 100 μM,100%
same,Melanin content d7 Mean,[1]; 100 μM,161%
same,melanin synthesis in comparison to the control (in words),[1]; both concentration levels tested (10 μM and 100 μM),increased markedly
same,"MCR1 expression, Mean",[2]; 10 μM,2.56 x-times expression
same,MCR1 expression (in words),"[2]; 10 μM, significantly differential = >= 1.8 times or <= 0.5 times untreated control",expressed in a significantly differential manner
same,MCR1 expression (in words),[2]; 100 μM,induced
same,"MCR1 expression, Mean",[2]; 100 μM,5.17 x-times expression
same,"ckit expression, Mean",[3]; 10 μM,1.32 x-times expression
same,ckit expression (in words),[3]; 100 μM,induced
same,"ckit expression, Mean",[3]; 100 μM,3.55 x-times expression
same,"gp100 expression, Mean",[4]; 10 μM,0.89 x-times expression
same,gp100 expression (in words),[4]; 100 μM,induced
same,"gp100 expression, Mean",[4]; 100 μM,3.48 x-times expression
